Measurements reported in patent publication US10342819B2, “Oligonucleotide having non-natural nucleotide at 5′-terminal thereof” (Kyowa Hakko Kirin Co., Ltd., priority 2014, dated 2019).

target: T1, AGO2-MID domain (Homo sapiens, UniProt Q9UKV8); assay: Biacore competition experiment of nucleotide (monomer) for the AGO2-MID domain (Test Examples 7 and 8); assay type: binding; conditions: Test Example 7; 2.5 μg/mL AGO2-MID domain solution containing the monomer at 100 μM; read-out: inhibition rate (%) (100 μM AGO2-MID domain solutions)
T1 construct: mixed with an equal amount of a 5 μg/mL AGO2-MID domain solution
Method: HBS-EP+ 10× was diluted to 10-fold with pure water, and DTT was added thereto to give a final concentration of 2 mM, followed by filtration through a filter to prepare an HBS-EP+ 2 mM DTT aqueous solution. To this solution, dimethyl sulfoxide (DMSO) was added to give a final concentration of 1%, whereby a running buffer was prepared.
A monomer solution dissolved in DMSO or distilled water was diluted to 200 μM, 40 μM, 8 μM, and 1.6 μM/(2% DMSO, HBS-EP+, 2 mM DTT), and each of the diluted solutions was mixed with an equal amount of a 5 μg/mL AGO2-MID domain solution diluted with the HBS-EP+2 mM DTT solution, whereby 2.5 μg/mL AGO2-MID domain solutions containing the monomer at 100 μM, 20 μM, 4 μM, and 0.8 μM, respectively, were prepared as the HBS-EP+, 2 mM DTT, 1% DMSO solution.
A competition experiment by the siRNA was performed using a chip immobilized dT(16)-Biotin oligo thereon in the same manner as in Test Example 6. The flow rate is set to 30 μL/minute throughout the experiment, and one cycle is performed as follows: binding for 60 seconds, dissociation for 5 seconds, and regeneration 1 M NaCl for 5 seconds.
In order to stabilize the machine, the first 10 cycles are performed by adding only HBS-EP+, and thereafter, the measurement is performed for each monomer in the order of HBS-EP+(BLANK), a 2.5 μg/mL AGO2-MID domain solution (CONTROL), and 2.5 μg/mL AGO2-MID domain solutions (Sample) containing the monomer at 100 μM, 20 μM, 4 μM, and 0.8 μM, respectively, and a 2.5 μg/mL AGO2-MID domain solution (CONTROL). In the analysis, the binding level of the graph obtained by subtracting the graph for blank immobilization from the graph for the immobilized cell is used, and the residual binding ratio (%) is calculated according to ([Sample]−[BLANK])/([CONTROL]−[BLANK])×100, and the inhibition ratio (%) is calculated according to 100−(residual binding ratio).
In Table 36, the inhibition ratios (%) of 8-Br-dA (Compound I-1) and 5-fluoro-2′-deoxyuridine monophosphate (Compound I-4), and for comparison thereof, the inhibition ratios (%) of adenosine monophosphate (AMP) and uridine monophosphate (UMP) are shown.

Row | inhibition at 100 µM [%] | Structure (SMILES)
1 | 35.9 | O=c1ccn([C@@H]2O[C@H](COP(=O)(O)O)[C@@H](O)[C@H]2O)c(=O)[nH]1 [UMP, uridine monophosphate, reference compound]
2 | 42.7 | O=c1[nH]c(=O)n([C@H]2C[C@H](O)[C@@H](COP(=O)(O)O)O2)cc1F [compound I-4, 5-fluoro-2′-deoxyuridine monophosphate]
3 | 27.1 | Nc1ncnc2c1ncn2[C@@H]1O[C@H](COP(=O)(O)O)[C@@H](O)[C@H]1O [AMP, adenosine monophosphate, reference compound]

same assay, conditions: Test Example 8; 2.5 μg/mL AGO2-MID domain solution containing the monomer at 100 μM; read-out: inhibition rate (%) (100 μM AGO2-MID domain solutions)

Row | Structure (SMILES) | inhibition at 100 µM [%]
4 | O=c1cc(I)n([C@@H]2O[C@H](COP(=O)(O)O)[C@@H](O)[C@H]2O)c(=O)[nH]1 [compound I-13, ((2R,3S,4R,5R)-5-(6-Iodo-2,4-dioxo-3,4-dihydropyrimidin-1(2H)-yl)-3,4-dihydroxytetrahydrofuran-2-yl)methyl phosphate] | 63.4
5 | O=c1[nH]c(=O)n([C@@H]2O[C@H](COP(=O)(O)O)[C@@H](O)[C@H]2O)c2ccsc12 [compound I-9, (2R,3S,4R,5R)-5-(2,4-Dioxo-3,4-dihydrothieno[3,2-d]pyrimidin-1(2H)-yl)-3,4-dihydroxytetrahydrofuran-2-yl)methyl phosphate] | 70.9
6 | CN(C)c1ncnc2c1nc(Br)n2[C@@H]1O[C@H](COP(=O)(O)O)[C@@H](O)[C@H]1O [compound I-11, ((2R,3S,4R,5R)-6-(8-bromo-6-(dimethylamino)-9H-purin-9-yl)-3,4-dihydroxytetrahydrofuran-2-yl)methyl phosphate] | 60.9
7 | Cc1c(C#N)n([C@@H]2O[C@H](COP(=O)(O)O)[C@@H](O)[C@H]2O)c(=O)[nH]c1=O [compound I-24, ((2R,3S,4R,5R)-5-(6-cyano-5-methyl-2,4-dioxo-3,4-dihydropyrimidin-1 (2H)-yl)-3,4-dihydroxytetrahydrofuran-2-yl)methyl phosphate] | 88.4
8 | O=c1[nH]c(=O)n([C@@H]2O[C@H](COP(=O)(O)O)[C@@H](O)[C@H]2O)c2cc(Cl)c([N+](=O)[O-])cc12 [compound I-35, ((2R,3S,4R,5R)-5-(7-Chloro-6-nitro-2,4-dioxo-3,4-dihydroquinazolin-1(2H)-yl)-3,4-dihydroxytetrahydrofuran-2-yl)methyl phosphate] | 88
9 | CNc1cc2c(cc1[N+](=O)[O-])c(=O)[nH]c(=O)n2[C@@H]1O[C@H](COP(=O)(O)O)[C@@H](O)[C@H]1O [compound I-37, ((2R,3S,4R,5R)-3,4-Dihydroxy-5-(7-(methylamino)-6-nitro-2,4-dioxo-3,4-dihydroquinazolin-1(2H)-yl)tetrahydrofuran-2-yl)methyl phosphate] | 92.3
10 | COc1cc2c(=O)[nH]c(=O)n([C@@H]3O[C@H](COP(=O)(O)O)[C@@H](O)[C@H]3O)c2cc1OC [compound I-5, ((2R,3S,4R,5R)-5-(6,7-dimethoxy-2,4-dioxo-3,4-dihydroquinazolin-1(2H)-yl)-3,4-dihydroxytetrahydrofuran-2-yl)methyl phosphate] | 87.4
11 | CN(C)c1cc2c(cc1[N+](=O)[O-])c(=O)[nH]c(=O)n2[C@@H]1O[C@H](COP(=O)(O)O)[C@@H](O)[C@H]1O [compound I-36, ((2R,3S,4R,5R)-5-(7-(Dimethylamino)-6-nitro-2,4-dioxo-3,4-dihydroquinazolin-1(2H)-yl)-3,4-dihydroxytetrahydrofuran-2-yl)methyl phosphate] | 91.6
12 | O=c1[nH]c(=O)n([C@@H]2O[C@H](COP(=O)(O)O)[C@@H](O)[C@H]2O)c2ccc([N+](=O)[O-])cc12 [compound I-23, ((2R,3S,4R,5R)-3,4-Dihydroxy-5-(6-nitro-2,4-dioxo-3,4-dihydroquinazolin-1(2H)-yl)tetrahydrofuran-2-yl)methyl phosphate] | 85.2
13 | COc1ccc(-c2cn([C@@H]3O[C@H](COP(=O)(O)O)[C@@H](O)[C@H]3O)c(=O)[nH]c2=O)cc1 [compound I-16, ((2R,3S,4R,5R)-3,4-Dihydroxy-5-(5-(4-methoxyphenyl)-2,4-dioxo-3,4-dihydropyrimidin-1(2H)-yl)tetrahydrofuran-2-yl)methyl phosphate] | 65.6
14 | Cc1sc2c(c1C)c(=O)[nH]c(=O)n2[C@@H]1O[C@H](COP(=O)(O)O)[C@@H](O)[C@H]1O [compound I-19, ((2R,3S,4R,5R)-5-(5,6-Dimethyl-2,4-dioxo-3,4-dihydrothieno [2,3-d]pyrimidin-1 (2H)-yl)-3,4-dihydroxytetrahydrofuran-2-yl)methyl phosphate] | 89.7
15 | Cc1cn([C@@H]2O[C@H](COP(=O)(O)O)[C@@H](O)[C@H]2O)c(=O)[nH]c1=O [compound I-33, ((2R,3S,4R,5R)-3,4-Dihydroxy-5-(5-methyl-2,4-dioxo-3,4-dihydropyrimidin-1(2H)-yl)tetrahydrofuran-2-yl)methyl phosphate] | 82.9
16 | CN(C)c1ncnc2c1nc(C#N)n2[C@@H]1O[C@H](COP(=O)(O)O)[C@@H](O)[C@H]1O [compound I-12, ((2R,3S,4R,5R)-6-(8-cyano-6-(dimethylamino)-9H-purin-9-yl)-3,4-dihydroxytetrahydrofuran-2-yl)methyl phosphate] | 74.2
17 | O=c1[nH]c(=O)n([C@@H]2O[C@H](COP(=O)(O)O)[C@@H](O)[C@H]2O)cc1/C=C/c1ccccc1 [compound I-31, ((2R,3S,4R,5R)-5-(2,4-Dioxo-5-styryl-3,4-dihydropyrimidin-1(2H)-yl)-3,4-dihydroxytetrahydrofuran-2-yl)methyl phosphate] | 73.6
18 | O=c1[nH]c(=O)n([C@@H]2O[C@H](COP(=O)(O)O)[C@@H](O)[C@H]2O)c2cccc(Cl)c12 [compound I-8, ((2R,3S,4R,5R)-5-(5-Chloro-2,4-dioxo-3,4-dihydroquinazolin-1(2H)-yl)-3,4-dihydroxytetrahydrofuran-2-yl)methyl phosphate] | 77.1

Results, then the compound that gave them:

Row | inhibition at 100 µM [%] | Structure (SMILES)
19 | 92.4 | Nc1cccc(-c2ncnc3c2ncn3[C@@H]2O[C@H](COP(=O)(O)O)[C@@H](O)[C@H]2O)c1 [compound I-27, ((2R,3S,4R,5R)-5-(6-(3-Aminophenyl)-9H-purin-9-yl)-3,4-dihydroxytetrahydrofuran-2-yl)methyl phosphate]
20 | 91.6 | O=Cc1cccc(-c2ncnc3c2ncn3[C@@H]2O[C@H](COP(=O)(O)O)[C@@H](O)[C@H]2O)c1 [compound I-22, ((2R,3S,4R,5R)-3,4-Dihydroxy-5-(6-(3-formylphenyl)-9H-purin-9-yl)tetrahydrofuran-2-yl)methyl phosphate]
21 | 73.2 | O=C(O)c1cccc(-c2ncnc3c2ncn3[C@@H]2O[C@H](COP(=O)(O)O)[C@@H](O)[C@H]2O)c1 [compound I-30, ((2R,3S,4R,5R)-5-(6-(3-(carboxy)phenyl)-9H-purin-9-yl)-3,4-dihydroxytetrahydrofuran-2-yl)methyl phosphate]
22 | 76.9 | CC(C)c1cccc(-c2ncnc3c2ncn3[C@@H]2O[C@H](COP(=O)(O)O)[C@@H](O)[C@H]2O)c1 [compound I-20, ((2R,3S,4R,5R)-3,4-dihydroxy-5-(6-(3-isopropylphenyl)-9H-purin-9-yl)tetrahydrofuran-2-yl)methyl phosphate]
23 | 97.8 | O=P(O)(O)OC[C@H]1O[C@@H](n2c(Br)nc3c(/C=C/c4ccccc4)ncnc32)[C@H](O)[C@@H]1O [compound I-18, ((2R,3S,4R,5R)-5-(8-Bromo-6-((E)-styryl)-9H-purin-9-yl)-3,4-dihydroxytetrahydrofuran-2-yl)methyl phosphate]
24 | 77.9 | O=P(O)(O)OC[C@H]1O[C@@H](n2cnc3c(-c4cccc(OCc5ccccc5)c4)ncnc32)[C@H](O)[C@@H]1O [compound I-29, ((2R,3S,4R,5R)-5-(6-(3-(Benzyloxy)phenyl)-9H-purin-9-yl)-3,4-dihydroxytetrahydrofuran-2-yl)methyl phosphate]
25 | 78.2 | O=P(O)(O)OC[C@H]1O[C@@H](n2cnc3c(-c4ccc5ccccc5c4)ncnc32)[C@H](O)[C@@H]1O [compound I-21, ((2R,3S,4R,5R)-3,4-Dihydroxy-5-(6-(naphthalen-2-yl)-9H-purin-9-yl)tetrahydrofuran-2-yl)methyl phosphate]

same assay, conditions: conclusion from Test Example 7

Row | affinity for AGO2 (inhibition ratio) compared with adenosine monophosphate or uridine monophosphate | Structure (SMILES)
26 | higher affinity for AGO2 | O=c1[nH]c(=O)n([C@H]2C[C@H](O)[C@@H](COP(=O)(O)O)O2)cc1F [5-fluoro-2′-deoxyuridine monophosphate]
